Assay results as given in patent US9273058B2 (BRISTOL-MYERS SQUIBB COMPANY, priority 2013, dated 2016).

Tests used:
[1] = target: CK1ε (Homo sapiens, UniProt P49674); assay: CK1ε kinase assay (Caliper LabChip electrophoretic separation of fluoresceinated peptide substrate and product); type: biochemical; settings: 200 pM CK1ε, 50 μM ATP, 1.5 μM peptide, 22 hours at room temperature; read-out: CK1ε IC50 range
How it was run: (§1)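 Kinase reactions ran 22 h at room temperature, were stopped with EDTA, and phosphorylated product was separated electrophoretically from unphosphorylated fluoresceinated peptide. Compounds were tested at eleven concentrations from 10 mM DMSO stocks. IC50 by non-linear regression.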

[2] = target: CK1δ (Homo sapiens, UniProt P48730); assay: CK1δ kinase assay (Caliper LabChip electrophoretic separation of fluoresceinated peptide substrate and product); type: biochemical; settings: 200 pM CK1δ, 50 μM ATP, 1.5 μM peptide, 22 hours at room temperature; read-out: CK1δ IC50 range
How it was run: as §1

Sequence of CK1ε (P49674 whole entry): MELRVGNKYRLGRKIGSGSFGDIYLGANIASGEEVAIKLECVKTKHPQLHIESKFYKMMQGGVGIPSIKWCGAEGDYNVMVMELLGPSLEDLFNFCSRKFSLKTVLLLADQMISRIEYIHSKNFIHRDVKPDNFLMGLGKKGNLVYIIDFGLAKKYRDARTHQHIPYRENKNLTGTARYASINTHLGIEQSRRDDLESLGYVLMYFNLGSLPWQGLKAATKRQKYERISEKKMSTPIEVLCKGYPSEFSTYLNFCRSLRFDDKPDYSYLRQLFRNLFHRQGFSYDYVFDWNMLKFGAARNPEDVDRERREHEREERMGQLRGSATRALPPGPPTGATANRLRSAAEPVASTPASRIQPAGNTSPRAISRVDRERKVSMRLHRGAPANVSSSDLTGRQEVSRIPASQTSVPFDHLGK
Sequence of CK1δ (P48730 whole entry): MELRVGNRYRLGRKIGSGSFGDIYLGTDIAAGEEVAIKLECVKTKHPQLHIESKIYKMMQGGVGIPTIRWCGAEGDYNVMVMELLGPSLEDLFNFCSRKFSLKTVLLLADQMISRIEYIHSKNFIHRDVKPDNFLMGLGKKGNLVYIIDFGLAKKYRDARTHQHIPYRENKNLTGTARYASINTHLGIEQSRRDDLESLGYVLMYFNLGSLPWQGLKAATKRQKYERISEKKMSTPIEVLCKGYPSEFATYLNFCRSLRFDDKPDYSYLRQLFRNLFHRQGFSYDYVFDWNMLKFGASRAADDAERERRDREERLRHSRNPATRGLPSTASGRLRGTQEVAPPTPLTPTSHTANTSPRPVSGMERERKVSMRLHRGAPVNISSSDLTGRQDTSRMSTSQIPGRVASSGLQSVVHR

SMILES	IC50 [1] [nM]	IC50 [2] [nM]
NC(=O)c1c(-c2ccc(F)c(Cl)c2)nn2c1CN(C(=O)NC1(c3ccc(F)cc3)CC(F)(F)C1)CC2 [Compound 308, 2-(3-Chloro-4-fluorophenyl)-N^5-(3,3-difluoro-1-(4-fluorophenyl)cyclobutyl)-6,7-dihydropyrazolo[1,5-a]pyrazine-3,5(4H)-dicarboxamide]	0.01 to 10	0.01 to 10
NC(=O)c1c(-c2ccc(Cl)c(Cl)c2)nn2c1CN(C(=O)NC1(c3ccc(F)cc3)CC(F)(F)C1)CC2 [Compound 310, 2-(3,4-Dichlorophenyl)-N^5-(3,3-difluoro-1-(4-fluorophenyl)cyclobutyl)-6,7-dihydropyrazolo[1,5-a] pyrazine-3,5(4H)-dicarboxamide]	0.01 to 10	0.01 to 10
NC(=O)c1c(-c2ccc(Cl)c(Cl)c2)nn2c1CN(C(=O)NC1(c3cccnc3)CC(F)(F)C1)CC2 [Compound 313, 2-(3,4-Dichlorophenyl)-N^5-(3,3-difluoro-1-(pyridin-3-yl)cyclobutyl)-6,7-dihydropyrazolo[1,5-a]pyrazine-3,5(4H)-dicarboxamide]	0.01 to 10	0.01 to 10
N#Cc1ccc(C2(NC(=O)N3CCn4nc(-c5ccc(F)c(Cl)c5)c(C(N)=O)c4C3)CC(F)(F)C2)cc1 [Compound 314, 2-(3-Chloro-4-fluorophenyl)-N^5-(1-(4-cyanophenyl)-3,3-difluorocyclobutyl)-6,7-dihydropyrazolo[1,5-a]pyrazine-3,5(4H)-dicarboxamide]	0.01 to 10	0.01 to 10
N#Cc1ccc(C2(NC(=O)N3CCn4nc(-c5ccc(Cl)c(Cl)c5)c(C(N)=O)c4C3)CC(F)(F)C2)cc1 [Compound 316, N^5-(1-(4-Cyanophenyl)-3,3-difluorocyclobutyl)-2-(3,4-dichlorophenyl)-6,7-dihydropyrazolo[1,5-a]pyrazine-3,5(4H)-dicarboxamide]	0.01 to 10	0.01 to 10
CC1(NC(=O)N2CCn3nc(-c4ccc(F)c(Cl)c4)c(C(N)=O)c3C2)CC2(CC2)C1 [Compound 317, 2-(3-Chloro-4-fluorophenyl)-N^5-(5-methylspiro[2.3]hexan-5-yl)-6,7-dihydropyrazolo[1,5-a]pyrazine-3,5(4H)-dicarboxamide]	0.01 to 10	0.01 to 10
CC1(NC(=O)N2CCn3nc(-c4ccc(Cl)c(Cl)c4)c(C(N)=O)c3C2)CC2(CC2)C1 [Compound 319, 2-(3,4-Dichlorophenyl)-N^5-(5-methylspiro[2.3]hexan-5-yl)-6,7-dihydropyrazolo[1,5-a]pyrazine-3,5(4H)-dicarboxamide]	0.01 to 10	0.01 to 10
N#CC1(NC(=O)N2CCn3nc(-c4ccc(F)c(Cl)c4)c(C(N)=O)c3C2)CCOC1 (stereo not shown) [Compound 334, 2-(3-Chloro-4-fluorophenyl)-N^5-(3-cyanotetrahydrofuran-3-yl)-6,7-dihydropyrazolo[1,5-a]pyrazine-3,5(4H)-dicarboxamide]	0.01 to 10	0.01 to 10

Results, then the molecule that gave them:

IC50 [1] [nM]	IC50 [2] [nM]	SMILES
0.01 to 10	0.01 to 10	CC1(NC(=O)N2CCn3nc(-c4cc(Cl)cc(Cl)c4)c(C(N)=O)c3C2)CC(F)(F)C1 [Compound 298, 2-(3,5-Dichlorophenyl)-N^5-(3,3-difluoro-1-methylcyclobutyl)-6,7-dihydropyrazolo[1,5-a] pyrazine-3,5(4H)-dicarboxamide]
0.01 to 10	0.01 to 10	CC1(NC(=O)N2CCn3nc(-c4cccc(Cl)c4)c(C(N)=O)c3C2)CC(F)(F)C1 [Compound 299, 2-(3-Chlorophenyl)-N^5-(3,3-difluoro-1-methylcyclobutyl)-6,7-dihydropyrazolo[1,5-a] pyrazine-3,5(4H)-dicarboxamide]
0.01 to 10	0.01 to 10	CC1(NC(=O)N2CCn3nc(-c4cc(F)cc(Cl)c4)c(C(N)=O)c3C2)CC(F)(F)C1 [Compound 300, 2-(3-Chloro-5-fluorophenyl)-N^5-(3,3-difluoro-1-methylcyclobutyl)-6,7-dihydropyrazolo[1,5-a]pyrazine-3,5(4H)-dicarboxamide]
0.01 to 10	0.01 to 10	NC(=O)c1c(-c2ccc(F)c(Cl)c2)nn2c1CN(C(=O)NC1(C(F)F)CC(F)(F)C1)CC2 [Compound 304, 2-(3-Chloro-4-fluorophenyl)-N^5-(1-(difluoromethyl)-3,3-difluorocyclobutyl)-6,7-dihydropyrazolo[1,5-a]pyrazine-3,5(4H)-dicarboxamide]
0.01 to 10	0.01 to 10	NC(=O)c1c(-c2ccc(Cl)c(Cl)c2)nn2c1CN(C(=O)NC1(C(F)F)CC(F)(F)C1)CC2 [Compound 305, 2-(3,4-Dichlorophenyl)-N^5-(1-(difluoromethyl)-3,3-difluorocyclobutyl)-6,7-dihydropyrazolo[1,5-a] pyrazine-3,5(4H)-dicarboxamide]
0.01 to 10	0.01 to 10	NC(=O)c1c(-c2cccc(Cl)c2)nn2c1CN(C(=O)NC1(C(F)F)CC(F)(F)C1)CC2 [Compound 306, 2-(3-Chlorophenyl)-N^5-(1-(difluoromethyl)-3,3-difluorocyclobutyl)-6,7-dihydropyrazolo[1,5-a] pyrazine-3,5(4H)-dicarboxamide]
0.01 to 10	0.01 to 10	CC1(F)CC(C)(NC(=O)N2CCn3nc(-c4ccc(F)c(Cl)c4)c(C(N)=O)c3C2)C1 (stereo not shown) [Compound 307, 2-(3-Chloro-4-fluorophenyl)-N^5-(3-fluoro-1,3-dimethylcyclobutyl)-6,7-dihydropyrazolo[1,5-a]pyrazine-3,5(4H)-dicarboxamide]
0.01 to 10	0.01 to 10	NC(=O)c1c(-c2cccc(Cl)c2)nn2c1CN(C(=O)NC1(c3ccc(F)cc3)CC(F)(F)C1)CC2 [Compound 309, 2-(3-Chlorophenyl)-N^5-(3,3-difluoro-1-(4-fluorophenyl)cyclobutyl)-6,7-dihydropyrazolo[1,5-a] pyrazine-3,5(4H)-dicarboxamide]
0.01 to 10	0.01 to 10	NC(=O)c1c(-c2ccc(F)c(Cl)c2)nn2c1CN(C(=O)NC1(c3cccnc3)CC(F)(F)C1)CC2 [Compound 311, 2-(3-Chloro-4-fluorophenyl)-N^5-(3,3-difluoro-1-(pyridin-3-yl)cyclobutyl)-6,7-dihydropyrazolo[1,5-a]pyrazine-3,5(4H)-dicarboxamide]
0.01 to 10	0.01 to 10	NC(=O)c1c(-c2cccc(Cl)c2)nn2c1CN(C(=O)NC1(c3cccnc3)CC(F)(F)C1)CC2 [Compound 312, 2-(3-Chlorophenyl)-N^5-(3,3-difluoro-1-(pyridin-3-yl)cyclobutyl)-6,7-dihydropyrazolo[1,5-a]pyrazine-3,5(4H)-dicarboxamide]
0.01 to 10	0.01 to 10	N#Cc1ccc(C2(NC(=O)N3CCn4nc(-c5cccc(Cl)c5)c(C(N)=O)c4C3)CC(F)(F)C2)cc1 [Compound 315, 2-(3-Chlorophenyl)-N^5-(1-(4-cyanophenyl)-3,3-difluorocyclobutyl)-6,7-dihydropyrazolo[1,5-a]pyrazine-3,5(4H)-dicarboxamide]
0.01 to 10	0.01 to 10	CC1(NC(=O)N2CCn3nc(-c4cccc(Cl)c4)c(C(N)=O)c3C2)CC2(CC2)C1 [Compound 318, 2-(3-Chlorophenyl)-N^5-(5-methylspiro[2.3]hexan-5-yl)-6,7-dihydropyrazolo[1,5-a]pyrazine-3,5(4H)-dicarboxamide]
